Measured values published in patent US5334606A, “Oxazolidindione substituted indole derivatives” (Merck Sharpe & Dohme Ltd., priority 1991, dated 1994).

Biological target: T1, human neurokinin-1- receptor (NK1R) (Homo sapiens, UniProt P25103)
T1 construct: expressed in transfected cells
Assay: 125I-substance P binding assay, human NK1R expressed in COS or CHO cells (Substance P antagonism)
Details: displacement of 125I-substance P, 4° C. or room temperature, 1 hour
Procedure: SUBSTANCE P ANTAGONISM ASSAY
A. Receptor Expression in Monkey Kidney Cell Line (COS)
To express the cloned human neurokinin-1- receptor (NK1R) transiently in COS, the cDNA for the human NK1R was cloned into the expression vector pCDM9 which was derived from pCDM8 (INVITROGEN) by inserting the ampicillin resistance gene (nucleotide 1973 to 2964 from BLUESCRIPT SK+ (trademark, STRATAGENE, La Jolla, Calif., USA)) into the Sac II site. Transfection of 20 μg of the plasmid DNA into 10 million COS cells was achieved by electropotation in 800 μl of transfection buffer (135 mM NaCl, 1.2 mM CaCl2, 1.2 mM MgCl2, 2.4 mM K2 HPO4, 0.6 mM KH2 PO4, 10 mM glucose, 10 mM N-2-hydroxyethyl-piperazine-N'-2-ethane sulphonic acid (HEPES) pH 7.4) at 260 V and 950 μF using the IBI GENEZAPPER (trademark IBI, New Haven, Conn., USA). The cells were incubated in 10% fetal calf serum, 2 mM glutamine, 100U/ml penicillin-streptomycin, and 90% DMEM media (GIBCO, Grand Island, N.Y., USA) in 5% CO2 at 37° C. for three days before the binding assay.
B. Stable Expression in Chinese Hamster Ovarian Cell Line (CHO)
To establish a stable cell line expressing cloned human NK1R, the cDNA was subcloned into the vector pRcCMV (INVITROGEN). Transfection of 20 μg of the plasmid DNA into CHO cells was achieved by electroporation in 800 μl of transfection buffer supplemented with 0.625 mg/ml Herring sperm DNA at 300 V and 950 μF using the IBI GENEZAPPER (IBI). The transfected cells were incubated in CHO media [10% fetal calf serum, 100 U/ml penicillin-streptomycin, 2 mM glutamine, 1/500 hypoxanthinethymidine (ATCC), 90% IMDM media (JRH BIOSCIENCES, Lenexa, Kans., USA), 0.7 mg/ml G418 (GIBCO)] in 5% CO2 at 37° C. until colonies were visible. Each colony was separated and propagated. The cell clone with the highest number of human NK1R was selected.
C. Assay Protocol using COS or CHO
The binding assay of human NK1R expressed in either COS or CHO cells is based on the use of ^125 I-substance P (^125 I-SP, from DU PONT, Boston, Mass.) as a radioactively labeled ligand which competes with unlabeled substance P or any other ligand for binding to the human NK1R. Monolayer cell cultures of COS or CHO were dissociated by the non-enzymatic solution (SPECIALTY MEDIA, Lavellette, N.J.) and resuspended in appropriate volume of the binding buffer (50 mM Tris pH 7.5, 5 mM MnCl2, 150 mM NaCl, 0.04 mg/ml bacitracin, 0.004 mg/ml leupeptin, 0.2 mg/ml BSA, 0.01 mM phosphoramidon) such that 200 μl of the cell suspension would give rise to about 10,000 cpm of specific ^125 I-SP binding (approximately 50,000 to 200,000 cells). In the binding assay, 200 μl of cells were added to a tube containing 20 μl of 1.5 to 2.5 nM of ^125 I-SP and 20 μl of unlabeled substance P or any other test compound. The tubes were incubated at 4° C. or at room temperature for 1 hour with gentle shaking. The bound radioactivity was separated from unbound radioactivity by GF/C filter (BRANDEL, Gaithersburg, MD) which was pre-wetted with 0.1% polyethylenimine. The filter was washed with 3 ml of wash buffer (50 mM Tris pH 7.5, 5 mM MnCl2, 150 mM NaCl) three times and its radioactivity was determined by gamma counter.

T1 sequence (P25103 whole entry): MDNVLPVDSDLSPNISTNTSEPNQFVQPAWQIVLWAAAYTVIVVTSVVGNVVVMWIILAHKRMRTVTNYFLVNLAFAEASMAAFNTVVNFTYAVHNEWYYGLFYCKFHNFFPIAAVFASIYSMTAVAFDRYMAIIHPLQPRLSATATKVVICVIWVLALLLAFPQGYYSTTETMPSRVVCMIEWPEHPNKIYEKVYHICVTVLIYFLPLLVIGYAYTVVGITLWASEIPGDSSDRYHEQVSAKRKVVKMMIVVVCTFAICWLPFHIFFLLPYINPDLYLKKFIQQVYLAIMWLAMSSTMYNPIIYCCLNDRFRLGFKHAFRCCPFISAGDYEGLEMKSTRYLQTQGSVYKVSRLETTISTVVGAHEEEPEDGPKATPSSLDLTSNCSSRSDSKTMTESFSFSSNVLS

Row | IC50 [nM] | Compound
1 | 21 | O=C1OC(Cc2c[nH]c3ccccc23)C(=O)N1Cc1cc(C(F)(F)F)cc(C(F)(F)F)c1 (stereo not drawn) [Example 1]
2 | 300 | COc1ccc2[nH]cc(CC3OC(=O)N(Cc4cc(C(F)(F)F)cc(C(F)(F)F)c4)C3=O)c2c1 (stereo not drawn) [Example 5]
3 | 300 | Cn1cc(CC2OC(=O)N(Cc3cc(C(F)(F)F)cc(C(F)(F)F)c3)C2=O)c2ccccc21 (stereo not drawn) [Example 4c]
4 | 630 | O=C1C(Cc2c[nH]c3ccccc23)N(Cc2ccccc2)C(=O)N1Cc1cc(C(F)(F)F)cc(C(F)(F)F)c1 (stereo not drawn) [Example 11]
5 | 14 | Cn1cc(CC2(C)OC(=O)N(Cc3cc(C(F)(F)F)cc(C(F)(F)F)c3)C2=O)c2ccccc21 (stereo not drawn) [Example 4a, 3-(3,5-Bistrifluoromethylbenzyl)-5-methyl-5-(1-methylindol-3-ylmethylene)oxazolidin-2,4-dione]
6 | 410 | 1-Phenylcarboxamide-3-(3,5-bistrifluoromethylbenzyl)-5-(indol-3-ylmethylene)imidazolidine-2,4-dione [Example 13]
7 | 140 | CC1(Cc2c[nH]c3ccccc23)OC(=O)N(Cc2cc(C(F)(F)F)cc(C(F)(F)F)c2)C1=O (stereo not drawn) [Example 4b]
8 | 160 | CN1C(=O)N(Cc2cc(C(F)(F)F)cc(C(F)(F)F)c2)C(=O)C1Cc1c[nH]c2ccccc12 (stereo not drawn) [Example 12]
9 | 100 | CC1(Cc2ccc(Cl)c(Cl)c2)OC(=O)N(Cc2cc(C(F)(F)F)cc(C(F)(F)F)c2)C1=O (stereo not drawn) [Example 10, 5-Methyl-5(3,4-dichlorobenzyl)-3-(3,5-bistrifluoromethylbenzyl)oxazolidin-2,4-dione]
10 | 250 | O=C1CC(Cc2c[nH]c3ccccc23)C(=O)N1Cc1cc(C(F)(F)F)cc(C(F)(F)F)c1 (stereo not drawn) [Example 3]
11 | > 1000 | CC1(Cc2ccc3ccccc3c2)OC(=O)N(Cc2cc(C(F)(F)F)cc(C(F)(F)F)c2)C1=O (stereo not drawn) [Example 9, 5-Methyl-5-(2-naphthylmethyl)-3-(3,5-bistrifluoromethylbenzyl)oxazolidin-2,4-dione]
12 | 50 | C=CCC1(Cc2c[nH]c3ccccc23)OC(=O)N(Cc2cc(C(F)(F)F)cc(C(F)(F)F)c2)C1=O (stereo not drawn) [Example 6]
13 | 400 | O=C1NC(Cc2c[nH]c3ccccc23)C(=O)N1Cc1cc(C(F)(F)F)cc(C(F)(F)F)c1 (stereo not drawn) [Example 2]
14 | 17 | O=C1O[C@@H](Cc2c[nH]c3ccccc23)C(=O)N1Cc1cc(C(F)(F)F)cc(C(F)(F)F)c1 [Example 8]
15 | 200 | O=C1OC(Cc2c[nH]c3ccccc23)C(=O)N1Cc1cc(Cl)cc(Cl)c1 (stereo not drawn) [Example 7]
16 | 85 | CNC(=O)N1C(=O)N(Cc2cc(C(F)(F)F)cc(C(F)(F)F)c2)C(=O)C1Cc1c[nH]c2ccccc12 (stereo not drawn) [Example 14]

Tested on: not given
Assay: not given
Details: literature, J. Med. Chem., 33(5), 1418-23 (1990); cited from earlier work

Row | Compound | antihyperglycaemic activity
17 | O=C1NC(=O)C(Cc2ccc3ccccc3c2)S1 (stereo not drawn) | antihyperglycaemic activity

Tested on: not given
Assay: not given
Details: literature, J. Med. Chem., 24(4), 465-8 (1981); cited from earlier work

Row | Compound | anticonvulsant activity
18 | CN1C(=O)NC(Cc2cccc(Br)c2)C1=O (stereo not drawn) | weak anticonvulsant activity
